According to ChEMBL document CHEMBL1926678, “Synthesis and bio-evaluation of human macrophage migration inhibitory factor inhibitor to develop anti-inflammatory agent” (Bioorg Med Chem, 2011):
The source made the active and inactive calls. The rule behind the calls is not given here.

Assays:
[1] = target: T1, Macrophage migration inhibitory factor (Homo sapiens, UniProt P14174); experiment: Inhibition of human cloned MIF tautomerase activity expressed in Escherichia coli assessed as conversion of L-dopachrome methyl ester to indolecarboxylic acid methyl ester measured for 20 secs
T1 sequence (P14174 whole entry): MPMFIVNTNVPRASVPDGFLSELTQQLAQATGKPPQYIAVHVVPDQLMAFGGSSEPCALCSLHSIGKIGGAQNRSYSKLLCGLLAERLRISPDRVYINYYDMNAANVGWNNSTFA

[2] = target: Macrophage migration inhibitory factor (Mus musculus) (UniProt P34884); experiment: Inhibition of MIF-induced NF-kappaB nuclear translocation in mouse RAW264.7 cells assessed as reduction in complex formation at 40 to 80 uM pretreated for 30 mins measured after 4 hrs by electrophoretic mobility shift assay; assay type: cell-based
Chain of Macrophage migration inhibitory factor (Mus musculus) (P34884 2-115 limits assumed): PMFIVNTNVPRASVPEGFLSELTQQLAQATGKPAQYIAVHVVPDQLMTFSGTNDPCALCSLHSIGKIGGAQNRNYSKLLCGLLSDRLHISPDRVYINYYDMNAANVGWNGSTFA

[3] = target: Macrophage migration inhibitory factor (Mus musculus) (UniProt P34884); experiment: Inhibition of MIF-induced NF-kappaB nuclear translocation in mouse RAW264.7 cells assessed as reduction in complex formation pretreated for 30 mins measured after 4 hrs by electrophoretic mobility shift assay; assay type: cell-based
[4] = target: Macrophage migration inhibitory factor (Mus musculus) (UniProt P34884); experiment: Inhibition of MIF-induced NF-kappaB nuclear translocation in mouse RAW264.7 cells assessed as inhibition of iNOS expression at 50 uM pretreated for 30 mins measured after 24 hrs by fluorescence spectrophotometry; assay type: cell-based
[5] = target: Macrophage migration inhibitory factor (Mus musculus) (UniProt P34884); experiment: Inhibition of MIF-induced nitric oxide production in mouse RAW264.7 cells at 50 uM pretreatment by Griess assay; assay type: cell-based
[6] = tested on: RAW264.7; experiment: Cytotoxicity against mouse RAW264.7 cells assessed as cell viability at 200 uM after 24 hrs by MTT assay; assay type: cell-based; settings: raw264.7, 24 h
[7] = Cytotoxicity against rat gastric mucosal cells assessed as cell viability at 200 uM after 24 hrs by MTT assay; assay type: cell-based, Gastric mucosa
[8] = target: Macrophage migration inhibitory factor (Mus musculus) (UniProt P34884); experiment: Inhibition of MIF-induced NF-kappaB nuclear translocation in mouse RAW264.7 cells at 100 uM pretreated for 30 mins before […] stimulation measured after 2 hrs by autoradiography; assay type: cell-based

| Structure (SMILES) | IC50 [1] | other results |
| --- | --- | --- |
| COC(=O)CC1CC(c2ccc(OC)cc2)=NO1 (configuration not stated) | 19.7 µM | – |
| COc1cc(C2=NOC(COc3ccc(C=O)cc3)C2)ccc1O (configuration not stated) | 7.3 µM | inhibition [2]: 100%; inhibition [3]: Dose-dependent effect; inhibition [4]: Active; inhibition [5]: Active; Activity [6]: Non-toxic; Activity [7]: Non-toxic |
| COc1ccc(C2=NOC(CC(=O)Oc3cc(C)ccc3C(C)C)C2)cc1 (configuration not stated) | 55.3 µM | – |
| COC(=O)CC1CC(c2ccc(OC(=O)CC3CC(c4ccc(OC)cc4)=NO3)cc2)=NO1 (configuration not stated) | 37.2 µM | – |
| COC(=O)CC1CC(c2ccc(O)cc2)=NO1 (racemic) | – | inhibition [8]: 70% |
| CCCCOC(=O)CC1CC(c2ccc(OC)cc2)=NO1 (configuration not stated) | 11.2 µM | – |
| COc1ccc(C2=NOC(C(C)=O)C2)cc1OC (configuration not stated) | 35.4 µM | – |
| O=C(O)CC1CC(c2ccc(O)cc2)=NO1 (configuration not stated) | 15.2 µM | – |
| COc1cc(C2=NOC(CC(=O)O)C2)ccc1O (configuration not stated) | 10.2 µM | – |
| COC(=O)C1CC(c2ccc(OC)c(OC)c2)=NO1 (configuration not stated) | 25.2 µM | – |
| COc1ccc(C2=NOC(CC(=O)O)C2)cc1 (configuration not stated) | 16.7 µM | – |
